Measured values published in ChEMBL document CHEMBL3301472, “MMV Malaria Box HIV and cytotoxicity screening”.

Columns and labels:
[1] = test system: Human immunodeficiency virus 1; assay: MMV: HIV CXCR4-tropic env NL4-3 pseudovirus assay produces luciferase signal in lieu of replicating viral particles Day 3 pi, U87-CD4-CXCR4, % inhibition at 5 mM compound; format: functional; design: dose or concentration left out as unconfirmed; settings: Human immunodeficiency virus 1, NL4-3, U87.CD4.CXCR4, 72 h
[2] = MMV: MTT Cytotoxicity Assay Day 3 pi, U87-CD4-CCR5 cells, % cell death @ 5mM compound; format: toxicity, cell-based; settings: human, u87-cd4-ccr5, 5000 µM
[3] = MMV: MTT Cytotoxicity Assay Day 3 pi, U87-CD4-CXCR4 cells, % cell death @ 5mM compound; format: toxicity, cell-based; settings: human, u87-cd4-cxcr4, 5000 µM
[4] = MMV: MTT Cytotoxicity Assay Day 7 pi of Assay #6 (compound washed out Day 1 pi), U87-CD4-CCR5 cells, % cell death @ 5mM compound; format: toxicity, cell-based; settings: human, u87-cd4-ccr5, 5000 µM
[5] = MMV: MTT Cytotoxicity Assay Day 7 pi of Assay #7 (compound washed out Day 1 pi), U87-CD4-CXCR4 cells, % cell death @ 5mM compound; format: toxicity, cell-based; settings: human, u87-cd4-cxcr4, 5000 µM
[6] = MMV: MTT Cytotoxicity Assay Day 7 pi of Assay #10 (NO washout), U87-CD4-CCR5 cells, % cell death @ 5mM compound; format: toxicity, cell-based; settings: human, u87-cd4-ccr5, 5000 µM
[7] = MMV: MTT Cytotoxicity Assay Day 7 pi of Assay #11 (NO washout), U87-CD4-CXCR4 cells, % cell death @ 5mM compound; format: toxicity, cell-based; settings: human, u87-cd4-cxcr4, 5000 µM
[8] = test system: Human immunodeficiency virus 1; assay: MMV: HIV JRFL CCR5-tropic replication-competent virus, virus & compound washed out Day 1 pi, P24 ELISA Day 7 pi, U87-CD4-CCR5, % inhibition at 5 mM compound; format: functional; design: dose or concentration left out as unconfirmed; settings: Human immunodeficiency virus 1, JR-FL

Row | SMILES | inhibition [1] [%] | % Cell Death [2] | % Cell Death [3] | % Cell Death [4] | % Cell Death [5] | % Cell Death [6] | % Cell Death [7] | inhibition [8] [%]
1 | CN(C)CCNc1cc(-c2ccccc2)nc2ccccc12 | 5 | 26 | 18 | 6 | -12 | 71 | 85 | 
2 | CC1CCN(Cc2ccc(NC(=O)c3cc4ccc5cccnc5c4[nH]3)cc2)CC1 | -1 | 9 | 23 | 17 | -14 | 3 | -7 | 
3 | COc1cccc(NC(=O)Cn2c(C)c(C#N)c3ccccc32)c1 | 8 | 23 | 47 | 29 | -5 | 12 | -1 | 
4 | Br.Cc1ccc(C)c(-c2csc(Nc3ccc(C)c(C)c3)n2)c1 | -1 | -10 | 21 | 5 | 39 | 48 | 28 | 
5 | Cc1cc(C)cc(Nc2cc(C)nc3nc(C(F)(F)F)nn23)c1 | 7 | 10 | 26 | 29 | -6 | -23 | -5 | 
6 | Oc1ccc(-c2nc(-c3ccc4oc5ccc(-c6[nH]c(-c7ccc(O)cc7)nc6-c6ccccc6)cc5c4c3)c(-c3ccccc3)[nH]2)cc1 | 1 | -2 | 46 | -12 | 17 | 56 | 89 | 
7 | COc1cccc(NC(=O)[C@H](C(C)C)n2c(=O)[nH]c3ccccc3c2=O)c1 | 0 | 24 | 20 | 24 | 5 | 27 | 7 | 
8 | COc1ccc2nc(C)cc(Nc3cccc(O)c3)c2c1.Cl | 7 | 16 | 39 | 10 | 0 | 43 | 76 | 
9 | Cc1ccnc(NC(c2cccc(OCc3ccccc3)c2)c2ccc3cccnc3c2O)c1 (stereo not given) | 1 | 19 | -12 | 49 | 37 | -16 | 27 | 
10 | CCCCCC(=O)N1c2ccccc2N=C2CC(c3ccc(OC)c(OC)c3)CC(O)=C2C1c1ccc(C(F)(F)F)cc1 (stereo not given) | 2 | 11 | 14 | 5 | -21 | 16 | -20 | 
11 | O=C(Cc1ccccc1)NC(c1ccc(Cl)cc1)c1c(O)ccc2ccccc12 (stereo not given) | 3 | 11 | 23 | 18 | -8 | 2 | -16 | 
12 | OC(CNCC1CCCO1)Cn1c2ccc(Cl)cc2c2cc(Cl)ccc21 (stereo not given) | 0 | 11 | 15 | 26 | -28 | -2 | -7 | 
13 | N=c1n(CCN2CCCCC2)c2ccccc2n1CC(=O)c1ccc(Cl)c(Cl)c1 | 0 | -21 | 9 | -5 | 4 | -3 | -14 | 
14 | COc1ccc(N2CCN(C(CNC(=O)C3CCCCC3)c3ccc4c(c3)OCO4)CC2)cc1 (stereo not given) |  | 17 | 63 | 25 | 6 | 38 | 71 | 10
15 | Cc1ccc(-c2cc(C(=O)Nc3ccc(S(=O)(=O)N4CCCCC4)cc3)[nH]n2)c(O)c1 |  | -5 | 11 | 18 | -29 | 10 | 16 | 6
16 | COc1ccc(-c2nc(N3CCN(C(=O)C4CCCCC4)CC3)c3c4c(sc3n2)CCCC4)cc1 |  | 2 | 46 | -3 | -26 | 113 | 104 | 5
17 | CCC(=O)Nc1nnc(Cc2ccc(OC)c(OC)c2)s1 |  | 17 | 21 | -1 | -14 | 9 | -23 | -1
18 | O=C(Nc1cccc(C2=NCCN2)c1)Nc1cccc(C2=NCCN2)c1 [IMIDOCARB] |  | 31 | 63 | -6 | 15 | 63 | 65 | 7
19 | Cc1cc(Nc2cccc(F)c2)nc(NCc2ccccc2)n1 |  | 21 | 33 | 6 | -12 | 20 | -41 | 5
20 | CC(=O)c1ccc(NC(=O)CSc2nc(-c3ccccc3Cl)ns2)cc1 |  | 57 | 51 | 7 | 8 | 41 | -33 | 7
21 | CN(C)c1ccc(-c2nc3cc(N)ccc3[nH]2)cc1 |  | 22 | 19 | -1 | -21 | 2 | -20 | 0
22 | Cc1cc(NC(=O)c2ccc(-c3ccccc3)cc2)no1 |  | -16 | 43 | -24 | -27 | 32 | -1 | 4
23 | COc1ccc(Nc2nc(NCc3ccccc3)c3ccccc3n2)cc1 |  | 18 | 28 | 21 | -30 | 41 | -24 | 2
24 | CC(C)CNC(=O)c1c(N)n(CCc2ccccc2F)c2nc3ccccc3nc12 |  | 0 | 47 | 4 | -6 | 35 | 99 | 3
25 | CCOc1cccc2sc(N(Cc3cccnc3)C(=O)C3CCCCC3)nc12 |  | 2 | 9 | 34 | 8 | 65 | 52 | 4
